Measured values as given in the supplement of paper PMC10883282.

Assays:
Assay in all cases: relative viability vs DMSO control (72 h) (fraction); higher = more viable cells
SK-ES-1 = tested on: SK-ES-1
Summary of the method: (§1)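 Sarcoma cell lines in 384-well plates, seeded to reach 80–90% confluence, were given compound after 24 h and kept 72 h at 37 °C, 5% CO2, with 0.1% DMSO vehicle and a 5 µM positive control. Relative viability came from ATPLite as percent growth, averaged over up to triplicate wells. On the rescaled values, 1 equals full and 0 equals none.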

SW872 = tested on: SW872
Summary of the method: as §1

SW1353 = tested on: SW1353
Summary of the method: as §1

SK-LMS-1 = tested on: SK-LMS-1
Summary of the method: as §1

A204 = tested on: A204
Summary of the method: as §1

SW982 = tested on: SW982
Summary of the method: as §1

HS729 = tested on: HS729
Summary of the method: as §1

RD = tested on: RD
Summary of the method: as §1

KHOS-240S = tested on: KHOS-240S
Summary of the method: as §1

VA-ES-BJ = tested on: VA-ES-BJ
Summary of the method: as §1

MES-SA = tested on: MES-SA
Summary of the method: as §1

G401 = tested on: G401
Summary of the method: as §1

Cc1cc2cc(Oc3ccnc(Nc4cccc(CS(=O)(=O)NCCN(C)C)c4)n3)ccc2[nH]1 [Sulfatinib]
Conditions	relative viability
A204, 0.00017 µM	1.09
A204, 0.00051 µM	1.08
A204, 0.00152 µM	1.08
A204, 0.00457 µM	1.05
A204, 0.01372 µM	1.07
A204, 0.04115 µM	1.02
A204, 0.1235 µM	1.01
A204, 0.3704 µM	0.878
A204, 1.111 µM	0.536
A204, 3.333 µM	0.283
A204, 10 µM	0.136
G401, 0.00017 µM	1.024
G401, 0.00051 µM	0.976
G401, 0.00152 µM	1.01
G401, 0.00457 µM	0.995
G401, 0.01372 µM	1.04
G401, 0.04115 µM	0.993
G401, 0.1235 µM	0.983
G401, 0.3704 µM	1.02
G401, 1.111 µM	0.969
G401, 3.333 µM	0.536
G401, 10 µM	0.157
HS729, 0.00017 µM	0.983
HS729, 0.00051 µM	0.993
HS729, 0.00152 µM	0.979
HS729, 0.00457 µM	0.9
HS729, 0.01372 µM	0.939
HS729, 0.04115 µM	0.872
HS729, 0.1235 µM	0.877
HS729, 0.3704 µM	0.843
HS729, 1.111 µM	0.768
HS729, 3.333 µM	0.629
HS729, 10 µM	0.49
KHOS-240S, 0.00017 µM	1.02
KHOS-240S, 0.00051 µM	1.02
KHOS-240S, 0.00152 µM	1.02
KHOS-240S, 0.00457 µM	1.03
KHOS-240S, 0.01372 µM	1.05
KHOS-240S, 0.04115 µM	1.02
KHOS-240S, 0.1235 µM	1.012
KHOS-240S, 0.3704 µM	0.961
KHOS-240S, 1.111 µM	0.936
KHOS-240S, 3.333 µM	0.741
KHOS-240S, 10 µM	0.382
MES-SA, 0.00017 µM	0.911
MES-SA, 0.00051 µM	0.92
MES-SA, 0.00152 µM	0.913
MES-SA, 0.00457 µM	0.906
MES-SA, 0.01372 µM	0.925
MES-SA, 0.04115 µM	0.894
MES-SA, 0.1235 µM	0.9221
MES-SA, 0.3704 µM	0.9312
MES-SA, 1.111 µM	0.969
MES-SA, 3.333 µM	0.791
MES-SA, 10 µM	0.299
RD, 0.00017 µM	1.074
RD, 0.00051 µM	1.09
RD, 0.00152 µM	1.09
RD, 0.00457 µM	1.123
RD, 0.01372 µM	1.1
RD, 0.04115 µM	1.094
RD, 0.1235 µM	1.12
RD, 0.3704 µM	1.09
RD, 1.111 µM	1.07
RD, 3.333 µM	0.981
RD, 10 µM	0.456
SK-ES-1, 0.00017 µM	1.03
SK-ES-1, 0.00051 µM	1.03
SK-ES-1, 0.00152 µM	1.01
SK-ES-1, 0.00457 µM	1.03
SK-ES-1, 0.01372 µM	1.03
SK-ES-1, 0.04115 µM	1.05
SK-ES-1, 0.1235 µM	1.03
SK-ES-1, 0.3704 µM	1.03
SK-ES-1, 1.111 µM	1
SK-ES-1, 3.333 µM	0.859
SK-ES-1, 10 µM	0.455
SK-LMS-1, 0.00017 µM	1
SK-LMS-1, 0.00051 µM	1.07
SK-LMS-1, 0.00152 µM	1.01
SK-LMS-1, 0.00457 µM	1.04
SK-LMS-1, 0.01372 µM	1.04
SK-LMS-1, 0.04115 µM	1.03
SK-LMS-1, 0.1235 µM	1.03
SK-LMS-1, 0.3704 µM	0.986
SK-LMS-1, 1.111 µM	1.01
SK-LMS-1, 3.333 µM	0.924
SK-LMS-1, 10 µM	0.531
SW872, 0.00017 µM	1.02
SW872, 0.00051 µM	1.05
SW872, 0.00152 µM	1.02
SW872, 0.00457 µM	1.02
SW872, 0.01372 µM	1
SW872, 0.04115 µM	0.996
SW872, 0.1235 µM	1.02
SW872, 0.3704 µM	1.02
SW872, 1.111 µM	0.973
SW872, 3.333 µM	0.88
SW872, 10 µM	0.526
SW982, 0.00017 µM	1.04
SW982, 0.00051 µM	1.04
SW982, 0.00152 µM	1.05
SW982, 0.00457 µM	1.06
SW982, 0.01372 µM	1.04
SW982, 0.04115 µM	1.03
SW982, 0.1235 µM	1.06
SW982, 0.3704 µM	1.02
SW982, 1.111 µM	0.971
SW982, 3.333 µM	0.719
SW982, 10 µM	0.226
SW1353, 0.00017 µM	0.936
SW1353, 0.00051 µM	0.911
SW1353, 0.00152 µM	0.925
SW1353, 0.00457 µM	0.941
SW1353, 0.01372 µM	0.975
SW1353, 0.04115 µM	0.922
SW1353, 0.1235 µM	0.964
SW1353, 0.3704 µM	0.931
SW1353, 1.111 µM	0.906
SW1353, 3.333 µM	0.845
SW1353, 10 µM	0.565
VA-ES-BJ, 0.00017 µM	1.03
VA-ES-BJ, 0.00051 µM	1.03
VA-ES-BJ, 0.00152 µM	1.02
VA-ES-BJ, 0.00457 µM	1.03
VA-ES-BJ, 0.01372 µM	1.02
VA-ES-BJ, 0.04115 µM	1.02
VA-ES-BJ, 0.1235 µM	1
VA-ES-BJ, 0.3704 µM	1.04
VA-ES-BJ, 1.111 µM	1.08
VA-ES-BJ, 3.333 µM	1.04
VA-ES-BJ, 10 µM	0.486
